Test results reported in EP0667868B1, “CEPHEM COMPOUNDS” (FUJISAWA PHARMACEUTICAL CO., LTD., priority 1993, dated 1995).
In brackets after ≈: the same amount, converted by molar mass.

Tests used:
[1] = Urinary excretion after oral administration (disc-plate diffusion bioassay); assay type: in vivo, Male JCL SD strain rats; conditions: rat; rats, 20 mg /kg oral, suspended in 0.5% methyl cellulose; urine 0 to 6 and 6 to 24 hours; Bacillus subtilis ATCC 6633 as test organism; read-out: Urinary recovery in 24 hours
Protocol: Male JCL SD strain rats (age, 6-7 weeks) were used. Test compound was suspended in 0.5% methyl cellulose solution. The rats were starved overnight before dosing with 20 mg /kg. Urine samples were collected at 0 to 6 and 6 to 24 hours after oral administration were measured by the disc-plate diffusion method using Bacillus subtilis ATCC 6633 as test organism and sodium citrate agar (0.8% sodium citrate, 0.5% polypeptone, 0.3% beef extract and 1.0% agar) as the test medium. The plate were incubated at 37°C for 18 hours and the zone of inhibition were measured.

S. aureus = assay: Minimal inhibitory concentration, two-fold agar-plate dilution method; assay type: cell-based; conditions: Staphylococcus aureus, HI-agar, 37°C for 20 hours
Protocol: (§1) In vitro antibacterial activity was determined by the two-fold agar-plate dilution method as described below.
(§2) One loopful of an overnight culture of each test strain in Trypticase-soy broth (10^8 viable cells per ml) was streaked on heart infusion agar (HI-agar)containing graded concentrations of representative test compound, and the minimal inhibitory concentration (MIC) was expressed in terms of µg/ml after incubation at 37°C for 20 hours.

E. coli = assay: as above; assay type: cell-based; conditions: Escherichia coli, HI-agar, 37°C for 20 hours
Protocol: as §1, §2

H. influenzae = assay: as above; assay type: cell-based; conditions: Haemophilus influenzae, HI-agar, 37°C for 20 hours
Protocol: as §1, §2

SMILES | dose excreted at 24 h [1] [%] | MIC (S. aureus) [µg/mL] | MIC (E. coli) [µg/mL] | MIC (H. influenzae) [µg/mL]
Nc1nc(/C(=N/O)C(=O)N[C@@H]2C(=O)N3C(C(=O)O)=C(SCc4cn[nH]c4)CS[C@H]23)cs1 [(3), 7β-[2-(2-Aminothiazol-4-yl)-2-(Z)-(hydroxyimino)-acetamido]-3-[(pyrazol-4-yl)methylthio]-3-cephem-4-carboxylic acid] | 50 | 0.23 (≈ 0.478 µM) | 0.033 (≈ 0.0685 µM) | 0.129 (≈ 0.268 µM)
Nc1nc(/C(=N/O)C(=O)N[C@@H]2C(=O)N3C(C(=O)O)=C(SCc4ccncc4)CS[C@H]23)cs1 [Comparative (1), 7β-[2-(2-Aminothiazol-4-yl)-2-(Z)-(hydroxyimino)-acetamido]-3-[(4-pyridyl)methylthio]-3-cephem-4-carboxylic acid] |  | 0.143 (≈ 0.29 µM) | 0.061 (≈ 0.124 µM) | 0.067 (≈ 0.136 µM)
Cc1nnsc1CSC1=C(C(=O)O)N2C(=O)[C@@H](NC(=O)/C(=N\O)c3csc(N)n3)[C@H]2SC1 [Comparative (2), 7β-[2-(2-Aminothiazol-4-yl)-2-(Z)-(hydroxyimino)-acetamido]-3-[(4-methyl-1,2,3-thiadiazol-5-yl)methylthio]-3-cephem-4-carboxylic acid] |  | 0.167 (≈ 0.325 µM) | 0.072 (≈ 0.14 µM) | 0.118 (≈ 0.23 µM)
